The record followed here is patent US20060094710A1, “Piperidine-pyridazones and phthalazones as pde4 inhibitors” (Altana Pharma AG, priority 2002, published 2006).

`COc1ccc(C2=NN(C3CCN(C(=O)CCS(=O)(=O)CCNC(=O)N4CCOCC4)CC3)C(=O)C3CC=CCC23)cc1OC` (centres unmarked) [Compound 5] returned a melting point of 118 to 121 °C.
`COc1ccc(C2=NN(C3CCN(C(=O)CCCOc4ccc5[nH]c(=O)ccc5c4)CC3)C(=O)CC2)cc1OC` [Compound 15, 6-(4-{4-[3-(3,4-Dimethoxy-phenyl)-6-oxo-5,6-dihydro-4H-pyridazin-1-yl]-piperidin-1-yl}-4-oxo-butoxy)-1H-quinolin-2-one]: the melting point lay in the range of 169 to 171 °C.
For `COCCN1CCC(N2N=C(c3ccc(OC)c(OC)c3)[C@H]3CC=CC[C@H]3C2=O)CC1.Cl` [Compound 9, (4aS,8aR)-4-(3,4-Dimethoxy-phenyl)-2-[1-(2-methoxy-ethyl)-piperidin-4-yl]-4a,5,8,8a-tetrahydro-2H-phthalazin-1-one hydrochloride], the melting point is 87 to 90 °C.
For the compound `COc1ccc(C2=NN(C3CCN(CCOCCN)CC3)C(=O)[C@@H]3CC=CC[C@H]23)cc1OC.Cl.Cl`, the melting point lay in the range of 86 to 89 °C.
Consider `COc1ccc(C2=NN(C3CCN(C(=O)CS(C)(=O)=O)CC3)C(=O)[C@@H]3CC=CC[C@H]23)cc1OC` [Compound 1, (4aS,8aR)-4-(3,4-Dimethoxy-phenyl)-2-[1(2-methanesulfonyl-ethanoyl)-piperidin-4-yl]-4a,5,8,8a-tetrahydro-2H-phthalazin-1-one], for which the melting point was in the range of 169 to 170 °C.
In turn, `COc1ccc(C2=NN(C3CCN(CC(=O)c4cc5ccccc5o4)CC3)C(=O)C3CC=CCC23)cc1OC` (centres unmarked) [Compound 2] displayed a melting point of 188 to 189 °C.
Turning to `COc1ccc(C2=NN(C3CCN(Cc4ccc(-n5cnc6ccccc65)cc4)CC3)C(=O)[C@@H]3CC=CC[C@H]23)cc1OC.Cl` [Compound 3, (4aS,8aR)-2-[1-(4-Benzimidazol-1-yl-benzyl)-piperidin-4-yl]-4-(3,4-dimethoxy-phenyl)-4a,5,8,8a-tetrahydro-2H-phthalazin-1-one hydrochloride], the melting point lay in the range of 147 to 149 °C.
As for `COc1ccc(C2=NN(C3CCN(CCS(C)(=O)=O)CC3)C(=O)[C@@H]3CC=CC[C@H]23)cc1OC.Cl` [Compound 11, (4aS,8aR)-4-(3,4-Dimethoxy-phenyl)-2-[1-(2-methanesulfonyl-ethyl)-piperidin-4-yl]-4a,5,8,8a-tetrahydro-2H-phthalazin-1-one hydrochloride], the melting point fell in the range of 87 to 90 °C.
